# Target: T1, hCARM1 (Homo sapiens, UniProt Q86X55)
# T1 construct: evaluate whether the cloned full-length hCARM1 had methylating activity; made in house; host or cells: baculovirus infected insect cells
# T1 sequence (Q86X55 1-608): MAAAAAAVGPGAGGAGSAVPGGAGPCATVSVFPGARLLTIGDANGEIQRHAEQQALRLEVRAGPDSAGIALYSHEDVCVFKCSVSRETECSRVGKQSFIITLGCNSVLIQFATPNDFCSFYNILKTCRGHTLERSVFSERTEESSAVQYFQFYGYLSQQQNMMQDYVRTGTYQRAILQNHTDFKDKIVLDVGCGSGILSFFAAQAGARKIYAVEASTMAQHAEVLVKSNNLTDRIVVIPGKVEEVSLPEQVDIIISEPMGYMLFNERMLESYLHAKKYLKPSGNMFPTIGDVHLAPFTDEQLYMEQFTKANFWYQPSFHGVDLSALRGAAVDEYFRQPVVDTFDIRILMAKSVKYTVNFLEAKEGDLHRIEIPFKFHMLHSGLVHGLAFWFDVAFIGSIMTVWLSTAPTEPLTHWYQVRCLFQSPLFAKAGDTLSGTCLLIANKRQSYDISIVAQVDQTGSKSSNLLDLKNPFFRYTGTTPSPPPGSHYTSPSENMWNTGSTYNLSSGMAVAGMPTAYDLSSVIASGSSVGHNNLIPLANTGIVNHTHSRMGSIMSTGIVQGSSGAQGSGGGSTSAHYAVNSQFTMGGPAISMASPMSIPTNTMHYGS
# Experiment: Methylation assay: inhibition of hCARM1 mediated methylation of Histone H3
# Assay type: biochemical
# Settings: Histone H3 substrate, 30° C. for 1 hr, SDS-PAGE/film
# Protocol: Methylation assay protocol: Reactions were performed in IX methylation buffer containing 20 mM Tris.HCl, pH 8.0, 200 mM NaCl and 0.4 mM EDTA. Reactions were assembled with 2.5 ug of Histone H3 and increasing amounts of hCARM1 (0.25 ug, 0.5 ug, 1.25 ug, 2.5 ug, 3.75 ug, 5 ug, or 7.5 ug). A mock reaction where hCARM1 was omitted was used as the negative control. Reactions were incubated at 30° C. for 1 hr. prior to loading on a 10-20% gradient SDS-PAGE. The gel was fixed, dried and exposed to film.
# A methylation reaction was performed in order to evaluate whether the cloned full-length hCARM1 had methylating activity. Mouse CARM1 has been previously shown to specifically methylate Histone H3 in vitro and in vivo.
smiles,measurement,value
N[C@@H](CCS)C(=O)O [homocysteine],inhibition of hCARM1 mediated methylation,effectively inhibited
